# Experiments:
# Assay in all cases: In vitro antibacterial evaluation: minimum inhibitory concentration (MIC), broth dilution method
# Type in all cases: cell-based
# [1] = system: Escherichia coli; conditions: broth dilution, 18 hours at 35° C.
# [2] = system: Enterococcus sp.; conditions: broth dilution, 18 hours at 35° C.
# In short: (§1)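 Inoculum: 5×10^5 CFU/mL. Range: 64-0.06 μg/mL. Medium: Muller-Hinton II […]; NCCLS M7-A2 broth dilution. Endpoint: lowest concentration inhibiting growth. Strains include methicillin-, penicillin- and/or vancomycin-resistant clinical isolates.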
# [3] = system: Staphylococcus sp.; conditions: broth dilution, 18 hours at 35° C.; for MIC Staphylococcus aureus-SMITH (GC 4543): strain SMITH GC 4543
# In short: as §1
# [4] = system: Streptococcus sp.; conditions: broth dilution, 18 hours at 35° C.
# In short: as §1
# [5] = Enterococcus faecalis (GC 4553)
# [6] = Streptococcus agalactiae (GC 4564)
# [7] = Streptococcus pneumoniae (ATCC 6301)
# [8] = Streptococcus pneumoniae (GC 1894)
# [9] = Streptococcus pneumoniae (GC 4565)
# [10] = Streptococcus pyogenes (GC 4563)
smiles,measurement,setting,value
"CC(c1ccccc1)C1NC(=O)CNC(=O)C(CO)NC(=O)C(C(O)C2CNC(=N)N2C2OC(CO)C(O)C(O)C2O)NC(=O)C(C(O)C2CNC(=N)N2)NC(=O)C(Cc2ccc3oc(-c4ccc(C(C)(C)C)cc4)nc3c2)NC1=O (stereo not drawn) [Example 32, Cyclo[3-[2-(4-tert-butylphenyl)-1,3-benzoxazol-5-yl]alanyl-3-(2-iminoimidazolidin-4-yl)seryl-3-(3-hexopyranosyl-2-iminoimidazolidin-4-yl)serylserylglycyl-β-methylphenylalanyl]]",MIC Escherichia coli (ATCC 25922),[1],16 µg/mL
same,MIC Escherichia coli (GC 4559),[1],16 µg/mL
same,MIC Escherichia coli (GC 4560),[1],4 µg/mL
same,MIC Enterococcus avium (GC 4558),[2]; Enterococcus avium (GC 4558),4 µg/mL
same,MIC Enterococcus faecalis (ATCC 29212),[2]; Enterococcus faecalis (ATCC 29212),8 µg/mL
same,MIC Enterococcus faecalis (GC 2242),[2]; Enterococcus faecalis (GC 2242),4 µg/mL
same,MIC Enterococcus faecalis (GC 2691),[2]; Enterococcus faecalis (GC 2691),8 µg/mL
same,MIC Enterococcus faecalis (GC 3059),[2]; Enterococcus faecalis (GC 3059),8 µg/mL
same,MIC Enterococcus faecalis (GC 4552),[2]; Enterococcus faecalis (GC 4552),8 µg/mL
same,MIC Enterococcus faecalis (GC 4553),[2]; [5],8 µg/mL
same,MIC Enterococcus faecalis (GC 4554),[2]; Enterococcus faecalis (GC 4554),4 µg/mL
same,MIC Enterococcus faecalis (GC 6189),[2]; Enterococcus faecalis (GC 6189),4 µg/mL
same,MIC Enterococcus faecium (GC 2243),[2]; Enterococcus faecium (GC 2243),4 µg/mL
same,MIC Enterococcus faecium (GC 4556),[2]; Enterococcus faecium (GC 4556),8 µg/mL
same,MIC Enterococcus faecium (GC 4557),[2]; Enterococcus faecium (GC 4557),2 µg/mL
same,MIC Enterococcus avium (GC 4558),[2],4 µg/mL
same,MIC Enterococcus faecalis (ATCC 29212),[2],8 µg/mL
same,MIC Enterococcus faecalis (GC 2242),[2],4 µg/mL
same,MIC Enterococcus faecalis (GC 2691),[2],8 µg/mL
same,MIC Enterococcus faecalis (GC 3059),[2],8 µg/mL
same,MIC Enterococcus faecalis (GC 4552),[2],8 µg/mL
same,MIC Enterococcus faecalis (GC 4553),[2],8 µg/mL
same,MIC Enterococcus faecalis (GC 4554),[2],4 µg/mL
same,MIC Enterococcus faecalis (GC 6189),[2],4 µg/mL
same,MIC Enterococcus faecium (GC 2243),[2],4 µg/mL
same,MIC Enterococcus faecium (GC 4556),[2],8 µg/mL
same,MIC Enterococcus faecium (GC 4557),[2],2 µg/mL
same,MIC Coagulase Negative Staphylococcus (GC 4547),[3],2 µg/mL
same,MIC Coagulase Negative Staphylococcus (GC 4548),[3],1 µg/mL
same,MIC Coagulase Negative Staphylococcus (GC 4549),[3],2 µg/mL
same,MIC Coagulase Negative Staphylococcus (GC 4551),[3],4 µg/mL
same,MIC Coagulase Negative Staphylococcus (GC 6257),[3],2 µg/mL
same,MIC Staphylococcus aureus SMITH (GC 4543),[3],2 µg/mL
same,MIC Staphylococcus haemolyticus (GC 4546),[3],2 µg/mL
same,MIC Staphylococcus aureus-SMITH (GC 4543),[3],2 µg/mL
same,MIC Streptococcus agalactiae (GC 4564),[4]; [6],16 µg/mL
same,MIC Streptococcus pneumoniae (ATCC 6301),[4]; [7],16 µg/mL
same,MIC Streptococcus pneumoniae (GC 1894),[4]; [8],16 µg/mL
same,MIC Streptococcus pneumoniae (GC 4565),[4]; [9],16 µg/mL
same,MIC Streptococcus pyogenes (GC 4563),[4]; [10],8 µg/mL
same,MIC Streptococcus agalactiae (GC 4564),[4],16 µg/mL
same,MIC Streptococcus pneumoniae (ATCC 6301),[4],16 µg/mL
same,MIC Streptococcus pneumoniae (GC 1894),[4],16 µg/mL
same,MIC Streptococcus pneumoniae (GC 4565),[4],16 µg/mL
same,MIC Streptococcus pyogenes (GC 4563),[4],8 µg/mL
"CC(c1ccccc1)C1NC(=O)CNC(=O)C(CO)NC(=O)C(C(O)C2CNC(=N)N2C2OC(CO)C(O)C(O)C2O)NC(=O)C(C(O)C2CNC(=N)N2)NC(=O)C(Cc2ccc3oc(-c4ccoc4)nc3c2)NC1=O (stereo not drawn) [Example 38, Cyclo[3-[2-(3-furyl)-1,3-benzoxazol-5-yl]alanyl-3-(2-iminoimidazolidin-4-yl)seryl-3-(3-hexopyranosyl-2-iminoimidazolidin-4-yl)serylserylglycyl-β-methylphenylalanyl]]",MIC Escherichia coli (ATCC 25922),[1],64 µg/mL
same,MIC Escherichia coli (GC 4559),[1],64 µg/mL
same,MIC Escherichia coli (GC 4560),[1],32 µg/mL
same,MIC Enterococcus avium (GC 4558),[2]; Enterococcus avium (GC 4558),64 µg/mL
same,MIC Enterococcus faecalis (GC 4553),[2]; [5],64 µg/mL
same,MIC Enterococcus faecium (GC 4557),[2]; Enterococcus faecium (GC 4557),32 µg/mL
same,MIC Enterococcus avium (GC 4558),[2],64 µg/mL
same,MIC Enterococcus faecalis (GC 4553),[2],64 µg/mL
same,MIC Enterococcus faecium (GC 4557),[2],32 µg/mL
same,MIC Coagulase Negative Staphylococcus (GC 4547),[3],32 µg/mL
same,MIC Coagulase Negative Staphylococcus (GC 4548),[3],32 µg/mL
same,MIC Coagulase Negative Staphylococcus (GC 4549),[3],64 µg/mL
same,MIC Coagulase Negative Staphylococcus (GC 4551),[3],64 µg/mL
same,MIC Coagulase Negative Staphylococcus (GC 6257),[3],16 µg/mL
same,MIC Staphylococcus aureus SMITH (GC 4543),[3],64 µg/mL
same,MIC Staphylococcus haemolyticus (GC 4546),[3],16 µg/mL
same,MIC Staphylococcus aureus-SMITH (GC 4543),[3],64 µg/mL
same,MIC Streptococcus agalactiae (GC 4564),[4]; [6],32 µg/mL
same,MIC Streptococcus pneumoniae (ATCC 6301),[4]; [7],32 µg/mL
same,MIC Streptococcus pneumoniae (GC 1894),[4]; [8],32 µg/mL
same,MIC Streptococcus pneumoniae (GC 4565),[4]; [9],64 µg/mL
same,MIC Streptococcus pyogenes (GC 4563),[4]; [10],32 µg/mL
same,MIC Streptococcus agalactiae (GC 4564),[4],32 µg/mL
same,MIC Streptococcus pneumoniae (ATCC 6301),[4],32 µg/mL
same,MIC Streptococcus pneumoniae (GC 1894),[4],32 µg/mL
same,MIC Streptococcus pneumoniae (GC 4565),[4],64 µg/mL
same,MIC Streptococcus pyogenes (GC 4563),[4],32 µg/mL

# From patent US8247211B2, “Glycopeptide antibiotics” (American Cyanamid Company, priority 2001, dated 2012)
